From the supplement of paper PMC10307832

Columns and labels:
Assay in all cases: relative viability (nuclei count vs DMSO), 5 days (fraction); higher = more cells survive
[1] = compound: N#CC[C@H](C1CCCC1)n1cc(-c2ncnc3[nH]ccc23)cn1 [Ruxolitinib] + CC(=O)Nc1cccc(-n2c(=O)n(C3CC3)c(=O)c3c(Nc4ccc(I)cc4F)n(C)c(=O)c(C)c32)c1 [Trametinib] (partner 0.02 µM)
Method in brief: (§1)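 Lung cancer cell lines in 1536-well plates got either a single drug or a fixed anchor-drug dose together with five library-drug doses (not always all listed) in √10 steps, by pin tool, on the day after seeding. Nuclei were counted after 5 days, and relative viability is the treated-to-vehicle ratio of nuclei counts. Values are medians of duplicate plates.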

[2] = compound: CS(=O)(=O)c1ccc(C(=O)Nc2ccc(Cl)c(-c3ccccn3)c2)c(Cl)c1 [Vismodegib] + Cc1nc(NC(=O)N2CCC[C@H]2C(N)=O)sc1-c1ccnc(C(C)(C)C(F)(F)F)c1 [Alpelisib] (partner 2 µM)
Method in brief: as §1

[3] = compound: CS(=O)(=O)c1ccc(-c2cnc(N)c(C(=O)Nc3ccccc3)n2)cc1 [VE-821] + COc1cc2c(Oc3ccc(NC(=O)C4(C(=O)Nc5ccc(F)cc5)CC4)cc3F)ccnc2cc1OCCCN1CCOCC1 [Foretinib] (partner 0.25 µM)
Method in brief: as §1

[4] = compound: CS(=O)(=O)c1ccc(C(=O)Nc2ccc(Cl)c(-c3ccccn3)c2)c(Cl)c1 [Vismodegib] + CC1(C)CCC(c2ccc(Cl)cc2)=C(CN2CCN(c3ccc(C(=O)NS(=O)(=O)c4ccc(N[C@H](CCN5CCOCC5)CSc5ccccc5)c(S(=O)(=O)C(F)(F)F)c4)cc3)CC2)C1 [Navitoclax] (partner 0.5 µM)
Method in brief: as §1

Cell Line | relative viability ([1]; first compound 0.08 µM) | relative viability ([1]; first compound 0.253 µM) | relative viability ([1]; first compound 0.8 µM) | relative viability ([1]; first compound 2.53 µM) | relative viability ([1]; first compound 8 µM) | relative viability ([2]; first compound 0.08 µM) | relative viability ([2]; first compound 0.253 µM) | relative viability ([2]; first compound 0.8 µM) | relative viability ([2]; first compound 2.53 µM) | relative viability ([2]; first compound 8 µM) | relative viability ([3]; first compound 0.08 µM) | relative viability ([3]; first compound 0.253 µM) | relative viability ([3]; first compound 0.8 µM) | relative viability ([3]; first compound 2.53 µM) | relative viability ([3]; first compound 8 µM) | relative viability ([4]; first compound 0.08 µM) | relative viability ([4]; first compound 0.253 µM) | relative viability ([4]; first compound 0.8 µM) | relative viability ([4]; first compound 2.53 µM) | relative viability ([4]; first compound 8 µM)
HCC-366 | 0.33 | 0.319 | 0.432 | 0.239 | 0.231 | 0.436 | 0.467 | 0.362 | 0.402 | 0.556 | 0.942 | 0.922 | 0.815 | 0.271 | 0.153 | 0.991 | 0.98 | 0.974 | 1.1 | 1.09
HCC-827 | – | 0.545 | 0.563 | 0.469 | 0.784 | 0.982 | 0.993 | 0.972 | 0.998 | 0.949 | 1.13 | 0.956 | 1.02 | 1.05 | 0.827 | 1.03 | 1.04 | 0.961 | 1.03 | 1.02
HOP-62 | 0.414 | 0.398 | 0.476 | 0.188 | 0.37 | 0.92 | 0.906 | 0.978 | 0.919 | 1.12 | 1.14 | 1.04 | 1.07 | 1.22 | 1.09 | 0.985 | 1.06 | 0.915 | 0.819 | 1.07
LC-2-ad | 0.879 | 0.896 | 0.878 | 0.663 | 0.577 | 0.894 | 0.909 | 0.859 | 0.818 | 0.918 | 1.04 | 1.05 | 1.03 | 1.17 | 1.03 | 0.573 | 0.447 | 0.422 | 0.522 | 0.553
LCLC-97TM1 | 0.176 | 0.157 | 0.199 | 0.113 | 0.217 | – | – | 0.287 | – | 0.287 | 1.12 | 1.05 | 0.878 | 0.98 | 0.885 | – | – | 0.443 | – | 0.63
LK-2 | 0.903 | 0.841 | 1.06 | 0.625 | 0.869 | 1.24 | 1.04 | 0.805 | 0.952 | 1.22 | 1.5 | 1.46 | 1.05 | 1.37 | 1.14 | 0.818 | 0.734 | 0.797 | 0.859 | 0.784
LOU-NH91 | 0.731 | 0.702 | 0.77 | 0.725 | 0.743 | 0.693 | 0.782 | 0.699 | 0.695 | 0.755 | 0.982 | 0.946 | 0.86 | 0.986 | 0.928 | 0.618 | 0.686 | 0.687 | 0.672 | 0.747
LU99A | 0.5 | 0.543 | 0.594 | 0.232 | 0.428 | 0.617 | 0.544 | 0.474 | 0.499 | 0.556 | 0.903 | 0.763 | 0.802 | 0.851 | 0.462 | 0.722 | 0.794 | 0.79 | 0.881 | 0.71
LXF-289 | 0.598 | 0.677 | 0.706 | 0.514 | 0.668 | 1 | 0.993 | 1.07 | 0.994 | 1.04 | 1.02 | 0.991 | 0.98 | 1.04 | 1.07 | 0.919 | 0.931 | 0.935 | 0.917 | 0.917
NCI-H23 | 0.371 | 0.354 | 0.436 | 0.241 | 0.35 | 0.801 | 0.588 | 0.672 | 0.652 | 0.853 | 1.19 | 1.13 | 0.889 | 0.688 | 0.39 | 0.89 | 0.735 | 0.926 | 0.811 | 0.86
NCI-H322M | 0.523 | 0.628 | 0.514 | 0.609 | 0.893 | 0.813 | 0.756 | 0.744 | 0.917 | 0.773 | 1.07 | 0.879 | 0.89 | 0.858 | 0.393 | 1.19 | 1.3 | 1.14 | 1.23 | 1.07
NCI-H441 | 0.478 | 0.373 | 0.572 | 0.415 | 0.513 | 0.647 | 0.633 | 0.829 | 0.824 | 0.745 | 1.36 | 1.04 | 1.19 | 1.04 | 0.928 | 0.808 | 0.734 | 0.722 | 0.554 | 0.689
NCI-H460 | 0.195 | 0.161 | 0.151 | 0.0402 | 0.134 | 0.542 | 0.495 | 0.552 | 0.434 | 0.435 | 1.02 | 0.979 | 0.841 | 0.919 | 0.17 | 1.01 | 0.995 | 1.28 | 1.06 | 1.21
NCI-H520 | 0.87 | 0.663 | 0.823 | 0.609 | 0.574 | 0.917 | 0.938 | 0.988 | 0.896 | 0.987 | 0.853 | 0.727 | 0.454 | 1.45 | 0.762 | 1.06 | 1.12 | 0.941 | 1.12 | 1.09
NCI-H596 | 0.741 | 0.702 | 0.928 | 0.763 | 0.789 | 0.438 | 0.448 | 0.51 | 0.472 | 0.545 | 0.867 | 0.617 | 0.928 | 0.905 | 0.607 | 0.95 | 1.01 | 0.848 | 0.882 | 0.904
NCI-H647 | 0.607 | 0.437 | 0.523 | 0.182 | 0.48 | 1.09 | 0.979 | 1.15 | 0.798 | 1.45 | 1.51 | 1.29 | 1.01 | 1.14 | 0.801 | – | 1.02 | 1.18 | 1.03 | 1.28
